Test results from ChEMBL document CHEMBL4813923, “Design, synthesis and biological evaluation of novel scaffold benzo[4,5]imidazo [1,2-a]pyrazin-1-amine: Towards adenosine A2A receptor (A2A AR) antagonist” (Eur J Med Chem, 2021).

target: Adenosine receptor A2a (Homo sapiens, UniProt P29274); experiment: Displacement of [3H]-ZM241385 from human recombinant A2A receptor expressed in human HEK293 cell membrane preincubated for 5 mins and measured after 1.5 hrs by radioligand competition binding assay; assay type: cell membranes
Sequence (P29274 whole entry): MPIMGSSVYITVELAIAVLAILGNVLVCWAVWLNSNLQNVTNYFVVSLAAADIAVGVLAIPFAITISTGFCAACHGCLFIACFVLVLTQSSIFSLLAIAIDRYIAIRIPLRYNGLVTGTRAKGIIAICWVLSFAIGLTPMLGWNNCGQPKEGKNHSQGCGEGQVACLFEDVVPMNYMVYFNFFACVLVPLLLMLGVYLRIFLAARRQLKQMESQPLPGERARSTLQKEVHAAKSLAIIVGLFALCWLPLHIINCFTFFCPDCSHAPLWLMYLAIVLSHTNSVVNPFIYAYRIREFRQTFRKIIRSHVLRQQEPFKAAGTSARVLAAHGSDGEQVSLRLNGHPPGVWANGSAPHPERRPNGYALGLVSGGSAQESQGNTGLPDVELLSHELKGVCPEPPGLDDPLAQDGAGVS

| Compound | IC50 |
| --- | --- |
| COc1ccccc1-c1cn2c(nc3ccccc32)c(N)n1 | 83.1 nM |
| Nc1nc(C2CCNCC2)cn2c1nc1ccccc12 | > 10000 nM |
| Nc1nc(-c2ccc(OC(F)(F)F)cc2)cn2c1nc1ccccc12 | 131 nM |
| COCCN1CCC(c2cn3c(nc4ccccc43)c(N)n2)CC1 | > 10000 nM |
| Nc1nc(CO)cn2c1nc1ccccc12 | 149 nM |
| Cc1c(-c2ccccc2)nc(N)c2nc3ccccc3n12 | 114 nM |
| CC(=O)Nc1ccc(-c2cn3c(nc4ccccc43)c(N)n2)cc1 | 312 nM |
| Nc1nc(C2CCN(CC(=O)N3CCOCC3)CC2)cn2c1nc1ccccc12 | > 10000 nM |

Further lines, results first:

| IC50 | Compound |
| --- | --- |
| 26.5 nM | Nc1nc(-c2ccc(C(F)(F)F)cc2)cn2c1nc1ccccc12 |
| 35.4 nM | Nc1nc(-c2ccc(Cl)cc2)cn2c1nc1ccccc12 |
| 38.4 nM | Nc1nc(-c2ccc(Br)cc2)cn2c1nc1ccccc12 |
| 33.7 nM | Nc1nc(-c2ccc(F)cc2F)cn2c1nc1ccccc12 |
| 74.4 nM | N#Cc1ccc(-c2cn3c(nc4ccccc43)c(N)n2)cc1 |
| 71.9 nM | Nc1nc(-c2ccc([N+](=O)[O-])cc2)cn2c1nc1ccccc12 |
| 81.3 nM | Nc1nc(-c2ccc(O)cc2)cn2c1nc1ccccc12 |
| 14.4 nM | Cc1ccc(-c2cn3c(nc4ccccc43)c(N)n2)cc1 |
| 10.1 nM | COc1cccc(-c2cn3c(nc4ccccc43)c(N)n2)c1 |
| 46.5 nM | Nc1nc(-c2ccccc2)cn2c1nc1ccccc12 |
| 48.6 nM | CC(=O)Nc1cccc(-c2cn3c(nc4ccccc43)c(N)n2)c1 |
| 33 nM | CC(C)(C)c1ccc(-c2cn3c(nc4ccccc43)c(N)n2)cc1 |
| 51.2 nM | COc1ccc(-c2cn3c(nc4ccccc43)c(N)n2)cc1 |
| 32.6 nM | Nc1nc(-c2ccco2)cn2c1nc1ccccc12 |

target: T1, Adenosine receptor A1 (Homo sapiens, UniProt P30542); experiment: Displacement of [3H]DPCPX from human adenosine A1 receptor expressed in CHO-K1 cell membrane preincubated for 5 mins followed measured after 50 mins by radioligand competition binding assay; assay type: cell membranes
T1 sequence (P30542 whole entry): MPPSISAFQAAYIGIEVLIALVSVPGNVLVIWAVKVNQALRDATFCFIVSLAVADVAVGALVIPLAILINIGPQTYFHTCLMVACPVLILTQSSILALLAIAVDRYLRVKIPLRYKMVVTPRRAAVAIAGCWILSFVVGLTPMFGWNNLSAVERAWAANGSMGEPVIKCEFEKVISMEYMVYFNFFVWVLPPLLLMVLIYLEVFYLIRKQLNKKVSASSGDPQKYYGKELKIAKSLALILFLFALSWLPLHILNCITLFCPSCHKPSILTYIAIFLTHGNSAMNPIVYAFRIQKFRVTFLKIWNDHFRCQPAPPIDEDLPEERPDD

| Compound | IC50 |
| --- | --- |
| Nc1nc(-c2cccc(Br)c2)cn2c1nc1ccccc12 | 92.1 nM |
| Nc1nc(Cc2ccccc2)cn2c1nc1ccccc12 | 733 nM |
| COc1cccc(-c2cn3c(nc4cc(F)c(F)cc43)c(N)n2)c1 | 460 nM |

Results, then the compound that gave them:

| IC50 | Compound |
| --- | --- |
| 4.4 nM | Nc1nc(-c2ccc(F)cc2F)cn2c1nc1ccccc12 |
| 63.9 nM | Cc1ccc(-c2cn3c(nc4ccccc43)c(N)n2)cc1 |
| 95.8 nM | COc1cccc(-c2cn3c(nc4ccccc43)c(N)n2)c1 |
| 17 nM | CC(=O)Nc1cccc(-c2cn3c(nc4ccccc43)c(N)n2)c1 |
| 6.3 nM | Nc1nc(-c2ccco2)cn2c1nc1ccccc12 |
